Experimental data as given in ChEMBL document CHEMBL1158736, “Cremastrine, a pyrrolizidine alkaloid from Cremastra appendiculata” (J Nat Prod, 2005).

Key:
[1] = molecular target: T1, Muscarinic acetylcholine receptor M1 (Homo sapiens, UniProt P11229); assay: Displacement of [3H]NMS from human cloned muscarinic M1 receptor expressed in insect Sf9 cells
T1 sequence (P11229 whole entry): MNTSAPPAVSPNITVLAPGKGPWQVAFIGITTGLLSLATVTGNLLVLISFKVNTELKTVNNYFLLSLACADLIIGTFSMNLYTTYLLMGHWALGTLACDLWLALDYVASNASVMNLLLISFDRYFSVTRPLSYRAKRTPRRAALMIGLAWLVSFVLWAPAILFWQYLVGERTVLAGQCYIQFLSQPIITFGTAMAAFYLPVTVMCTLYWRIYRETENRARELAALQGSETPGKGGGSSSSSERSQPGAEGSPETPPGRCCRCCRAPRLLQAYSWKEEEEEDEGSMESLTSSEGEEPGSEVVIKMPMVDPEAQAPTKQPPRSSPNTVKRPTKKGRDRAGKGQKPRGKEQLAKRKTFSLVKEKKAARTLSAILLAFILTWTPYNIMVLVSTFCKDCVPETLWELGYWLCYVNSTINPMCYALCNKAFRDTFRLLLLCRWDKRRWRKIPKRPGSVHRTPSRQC

[2] = molecular target: T2, Muscarinic acetylcholine receptor M2 (Homo sapiens, UniProt P08172); assay: Displacement of [3H]NMS from human cloned muscarinic M2 receptor expressed in insect Sf9 cells
T2 sequence (P08172 whole entry): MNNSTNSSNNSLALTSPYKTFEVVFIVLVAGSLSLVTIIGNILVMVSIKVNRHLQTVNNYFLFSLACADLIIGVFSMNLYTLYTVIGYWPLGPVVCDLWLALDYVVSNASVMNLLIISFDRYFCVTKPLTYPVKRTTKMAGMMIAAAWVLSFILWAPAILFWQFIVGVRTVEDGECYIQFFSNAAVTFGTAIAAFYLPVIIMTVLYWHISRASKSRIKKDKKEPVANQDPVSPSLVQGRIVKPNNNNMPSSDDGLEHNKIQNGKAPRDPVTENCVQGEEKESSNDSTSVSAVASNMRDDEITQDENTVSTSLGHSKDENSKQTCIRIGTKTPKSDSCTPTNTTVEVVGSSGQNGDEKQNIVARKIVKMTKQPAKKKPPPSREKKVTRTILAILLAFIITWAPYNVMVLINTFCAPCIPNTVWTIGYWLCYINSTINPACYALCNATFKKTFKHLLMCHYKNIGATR

[3] = molecular target: Muscarinic acetylcholine receptor M3 (Homo sapiens, UniProt P20309); assay: Displacement of [3H]NMS from human cloned muscarinic M3 receptor expressed in insect Sf9 cells
[4] = molecular target: T3, Muscarinic acetylcholine receptor M4 (Homo sapiens, UniProt P08173); assay: Displacement of [3H]NMS from human cloned muscarinic M4 receptor expressed in insect Sf9 cells
T3 sequence (P08173 whole entry): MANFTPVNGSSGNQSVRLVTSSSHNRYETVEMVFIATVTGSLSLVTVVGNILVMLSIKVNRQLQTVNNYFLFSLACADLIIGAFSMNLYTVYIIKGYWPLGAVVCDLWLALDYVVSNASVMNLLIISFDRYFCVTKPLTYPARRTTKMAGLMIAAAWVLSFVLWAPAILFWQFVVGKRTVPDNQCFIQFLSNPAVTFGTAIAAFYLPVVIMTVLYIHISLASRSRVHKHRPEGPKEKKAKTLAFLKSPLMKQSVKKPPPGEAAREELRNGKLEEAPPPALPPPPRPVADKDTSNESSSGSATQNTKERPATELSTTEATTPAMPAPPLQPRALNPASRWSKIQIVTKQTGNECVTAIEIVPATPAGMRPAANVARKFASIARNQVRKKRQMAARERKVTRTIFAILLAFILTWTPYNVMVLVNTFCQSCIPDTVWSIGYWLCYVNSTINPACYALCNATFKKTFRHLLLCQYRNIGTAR

[5] = molecular target: T4, Muscarinic acetylcholine receptor M5 (Homo sapiens, UniProt P08912); assay: Displacement of [3H]NMS from human cloned muscarinic M5 receptor expressed in insect Sf9 cells
T4 sequence (P08912 whole entry): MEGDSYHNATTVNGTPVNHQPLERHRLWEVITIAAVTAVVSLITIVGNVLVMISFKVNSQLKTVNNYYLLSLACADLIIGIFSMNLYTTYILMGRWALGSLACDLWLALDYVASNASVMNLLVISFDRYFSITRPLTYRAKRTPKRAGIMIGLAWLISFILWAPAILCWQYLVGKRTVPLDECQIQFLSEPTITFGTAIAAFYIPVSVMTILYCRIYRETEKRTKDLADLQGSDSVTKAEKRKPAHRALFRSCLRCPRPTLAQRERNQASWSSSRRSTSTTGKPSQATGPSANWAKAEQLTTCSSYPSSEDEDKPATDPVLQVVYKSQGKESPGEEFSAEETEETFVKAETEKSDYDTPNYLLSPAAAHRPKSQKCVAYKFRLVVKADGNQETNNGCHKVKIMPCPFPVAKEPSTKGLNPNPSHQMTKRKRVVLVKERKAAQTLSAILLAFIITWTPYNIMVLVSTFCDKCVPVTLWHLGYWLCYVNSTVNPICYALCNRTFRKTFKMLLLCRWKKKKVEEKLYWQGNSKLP

Chain of Muscarinic acetylcholine receptor M3 (P20309 whole entry): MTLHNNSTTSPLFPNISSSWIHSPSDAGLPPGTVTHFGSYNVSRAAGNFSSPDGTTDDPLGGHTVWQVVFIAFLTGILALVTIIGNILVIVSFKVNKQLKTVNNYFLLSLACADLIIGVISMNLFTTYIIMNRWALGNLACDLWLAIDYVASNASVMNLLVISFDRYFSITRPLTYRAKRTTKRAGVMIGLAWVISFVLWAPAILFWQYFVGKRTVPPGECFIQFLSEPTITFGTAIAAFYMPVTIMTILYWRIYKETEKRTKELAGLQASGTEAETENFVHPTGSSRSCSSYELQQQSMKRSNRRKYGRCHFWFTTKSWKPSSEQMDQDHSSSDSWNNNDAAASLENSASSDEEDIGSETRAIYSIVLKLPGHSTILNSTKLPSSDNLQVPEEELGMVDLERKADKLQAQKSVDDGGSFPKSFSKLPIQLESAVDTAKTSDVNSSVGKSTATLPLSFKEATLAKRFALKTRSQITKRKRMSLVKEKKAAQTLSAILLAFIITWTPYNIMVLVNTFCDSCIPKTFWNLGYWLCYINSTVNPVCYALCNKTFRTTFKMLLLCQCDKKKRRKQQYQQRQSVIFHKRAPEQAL

CC[C@@H](C)[C@@H](O)C(=O)OC[C@H]1CCN2CCC[C@@H]12 [CREMASTRINE] was tested, and the IC50 [1] was 505 nM, the IC50 [2] was > 5520 nM and the IC50 [3] was 126 nM. For the same compound, the IC50 [4] was 498 nM and the IC50 [5] was 1220 nM.
